Reference: US10202374B2, “6-aryl-4-phenylamino-quinazoline analogs as phosphoinositide-3-kinase inhibitors” (COUNCIL OF SCIENTIFIC & INDUSTRIAL RESEARCH, priority 2014, dated 2019)

Molecular target: PI3K-α (Homo sapiens, UniProt P42336)
Assay: PI3K-α assay (ADP-Glo)
Assay type: biochemical
Settings: 0.5 μM, preliminary screening
Procedure: The enzyme is assayed for 80 min after which 20 ul of ADP-Glo reagent is added. After a further incubation of 40 min, 40 ul of Kinase Detection Buffer is added. The assays are incubated for 40 min and then read on PerkinElmer Envision for 1 sec/well.

Chain of PI3K-α (P42336 whole entry): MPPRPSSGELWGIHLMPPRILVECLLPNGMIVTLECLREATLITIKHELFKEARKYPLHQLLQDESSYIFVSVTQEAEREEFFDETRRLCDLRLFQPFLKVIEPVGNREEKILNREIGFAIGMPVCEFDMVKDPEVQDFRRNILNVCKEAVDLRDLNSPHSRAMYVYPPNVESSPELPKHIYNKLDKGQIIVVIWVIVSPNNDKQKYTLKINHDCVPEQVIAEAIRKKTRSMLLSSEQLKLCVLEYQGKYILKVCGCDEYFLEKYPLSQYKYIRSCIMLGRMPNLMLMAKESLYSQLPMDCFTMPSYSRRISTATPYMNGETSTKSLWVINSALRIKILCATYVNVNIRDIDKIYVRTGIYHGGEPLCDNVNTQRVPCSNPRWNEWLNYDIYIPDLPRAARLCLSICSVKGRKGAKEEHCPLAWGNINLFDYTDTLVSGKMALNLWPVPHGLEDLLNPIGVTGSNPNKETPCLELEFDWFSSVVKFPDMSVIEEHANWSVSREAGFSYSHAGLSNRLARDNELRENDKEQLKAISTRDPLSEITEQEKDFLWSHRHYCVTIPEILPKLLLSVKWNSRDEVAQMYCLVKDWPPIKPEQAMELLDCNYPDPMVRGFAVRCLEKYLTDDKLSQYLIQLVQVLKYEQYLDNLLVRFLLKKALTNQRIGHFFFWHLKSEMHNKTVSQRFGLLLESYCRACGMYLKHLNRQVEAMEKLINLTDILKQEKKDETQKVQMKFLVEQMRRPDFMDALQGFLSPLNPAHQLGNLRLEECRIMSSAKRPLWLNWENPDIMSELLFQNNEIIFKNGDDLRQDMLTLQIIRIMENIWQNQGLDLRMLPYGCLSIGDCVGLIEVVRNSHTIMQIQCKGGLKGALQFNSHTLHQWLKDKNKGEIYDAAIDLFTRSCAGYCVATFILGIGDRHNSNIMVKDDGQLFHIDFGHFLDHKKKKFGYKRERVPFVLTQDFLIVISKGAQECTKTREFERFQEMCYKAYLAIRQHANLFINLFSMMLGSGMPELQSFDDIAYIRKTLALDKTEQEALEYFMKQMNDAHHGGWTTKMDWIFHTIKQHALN
Chain of PI3K-α (P27986 whole entry partner): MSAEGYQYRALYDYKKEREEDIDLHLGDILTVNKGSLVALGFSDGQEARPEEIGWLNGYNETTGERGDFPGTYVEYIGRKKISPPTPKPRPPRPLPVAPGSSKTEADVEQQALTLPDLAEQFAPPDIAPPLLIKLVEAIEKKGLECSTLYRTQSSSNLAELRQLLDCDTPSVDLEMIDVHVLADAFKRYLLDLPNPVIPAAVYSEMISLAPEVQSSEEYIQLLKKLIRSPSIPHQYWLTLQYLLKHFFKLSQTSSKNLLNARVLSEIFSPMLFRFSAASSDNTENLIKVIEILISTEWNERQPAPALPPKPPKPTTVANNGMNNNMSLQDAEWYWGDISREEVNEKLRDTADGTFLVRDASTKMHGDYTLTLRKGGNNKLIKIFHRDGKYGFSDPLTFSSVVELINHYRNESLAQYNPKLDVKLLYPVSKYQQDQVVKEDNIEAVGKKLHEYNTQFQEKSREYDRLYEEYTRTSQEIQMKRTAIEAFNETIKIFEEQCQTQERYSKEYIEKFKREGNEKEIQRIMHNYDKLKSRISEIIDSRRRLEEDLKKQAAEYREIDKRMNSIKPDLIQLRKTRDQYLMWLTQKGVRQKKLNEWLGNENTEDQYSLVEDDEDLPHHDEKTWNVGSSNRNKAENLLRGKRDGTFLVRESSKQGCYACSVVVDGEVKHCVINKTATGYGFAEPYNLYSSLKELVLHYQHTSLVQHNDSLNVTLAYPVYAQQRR

| SMILES | inhibition at 0.5 µM |
| --- | --- |
| N#CCc1ccc(Nc2ncnc3ccc(-c4cc5ccccc5o4)cc23)cc1 [Compound 22, 6-(benzofuran-2-yl)-4-(4-cyanomethyl)phenylamino-quinazoline] | 29.8% |
| N#CCc1ccc(Nc2ncnc3ccc(-c4cc5ccccc5s4)cc23)cc1 [Compound 23, 6-(benzo[b]thiophen-2-yl)-4-(4-cyanomethyl)phenylamino-quinazoline] | 2.7% |

More lines, now with the values ahead:

| inhibition at 0.5 µM | SMILES |
| --- | --- |
| 1.5% | N#CCc1ccc(Nc2ncnc3ccc(-c4cccc5c4oc4ccccc45)cc23)cc1 [Compound 24, 6-(dibenzo(b,d)furan-4-yl)-4-(4-cyanomethyl)phenylamino-quinazoline] |
| < 0% | N#CCc1ccc(Nc2ncnc3ccc(-c4cccc5c4sc4ccccc45)cc23)cc1 [Compound 25, 6-(dibenzo(b,d)thiophene-4-yl)-4-(4-cyanomethyl)phenylamino-quinazoline] |
| < 0% | N#CCc1ccc(Nc2ncnc3ccc(-c4cnc5ccccc5c4)cc23)cc1 [Compound 27, 6-(quinolin-3-yl)-4-(4-cyanomethyl)phenylamino-quinazoline] |

Tested on: A-375 (melanoma) cells
Assay: MTT cytotoxicity assay, A375
Assay type: cell-based
Settings: Homo sapiens, 48 h treatment, read-out: Anticancer activity IC50 A375
Procedure: (§1) Compounds proposed in present invention were evaluated for their cytotoxic effect against panel of 5 cancer cell line viz. Panc-1 (pancreatic cancer), MCF-7 (breast cancer), PC-3 (prostate), HL-60 (leukemia) and A-375 (melanoma) using MTT assay. In each well of a 96-well plate, 3×10^3 cells were grown in 100 μL of medium. After 24 h, each test molecules were added to achieve a final concentration of 10 to 0.01 μmol/L, respectively. After 48 h of treatment, 20 μL of 2.5 mg/mL MTT (Organics Research, Inc.) solution in phosphate buffer saline was added to each well. […], supernatant was removed and formazan crystals were dissolved in 200 μL of DMSO. Absorbance was then measured at 570 nm using an absorbance plate reader (Bio-Rad Microplate Reader). Data are expressed as the percentage of viable cells in treated relative to non-treated conditions. Each experiment was repeated thrice and data was expressed as mean±SD of three independent experiments (Mordant, P. et al., Mol. Cancer Ther. 2010, 9, 358).

| SMILES | IC50 |
| --- | --- |
| N#CCc1ccc(Nc2ncnc3ccc(-c4cc5ccccc5o4)cc23)cc1 [Compound 22, 6-(benzofuran-2-yl)-4-(4-cyanomethyl)phenylamino-quinazoline] | 10 µM |
| N#CCc1ccc(Nc2ncnc3ccc(-c4cc5ccccc5s4)cc23)cc1 [Compound 23, 6-(benzo[b]thiophen-2-yl)-4-(4-cyanomethyl)phenylamino-quinazoline] | 14 µM |
| N#CCc1ccc(Nc2ncnc3ccc(-c4cccc5c4oc4ccccc45)cc23)cc1 [Compound 24, 6-(dibenzo(b,d)furan-4-yl)-4-(4-cyanomethyl)phenylamino-quinazoline] | 36 µM |
| N#CCc1ccc(Nc2ncnc3ccc(-c4cccc5c4sc4ccccc45)cc23)cc1 [Compound 25, 6-(dibenzo(b,d)thiophene-4-yl)-4-(4-cyanomethyl)phenylamino-quinazoline] | 34 µM |
| N#CCc1ccc(Nc2ncnc3ccc(-c4cnc5ccccc5c4)cc23)cc1 [Compound 27, 6-(quinolin-3-yl)-4-(4-cyanomethyl)phenylamino-quinazoline] | 89 µM |

Tested on: PC-3 (prostate cancer) cells
Assay: MTT cytotoxicity assay, PC-3
Assay type: cell-based
Settings: Homo sapiens, 48 h treatment, read-out: Anticancer activity IC50 PC-3
Procedure: as §1

| SMILES | IC50 |
| --- | --- |
| N#CCc1ccc(Nc2ncnc3ccc(-c4cc5ccccc5o4)cc23)cc1 [Compound 22, 6-(benzofuran-2-yl)-4-(4-cyanomethyl)phenylamino-quinazoline] | 8 µM |
| N#CCc1ccc(Nc2ncnc3ccc(-c4cc5ccccc5s4)cc23)cc1 [Compound 23, 6-(benzo[b]thiophen-2-yl)-4-(4-cyanomethyl)phenylamino-quinazoline] | 13 µM |
| N#CCc1ccc(Nc2ncnc3ccc(-c4cccc5c4oc4ccccc45)cc23)cc1 [Compound 24, 6-(dibenzo(b,d)furan-4-yl)-4-(4-cyanomethyl)phenylamino-quinazoline] | 16 µM |
| N#CCc1ccc(Nc2ncnc3ccc(-c4cccc5c4sc4ccccc45)cc23)cc1 [Compound 25, 6-(dibenzo(b,d)thiophene-4-yl)-4-(4-cyanomethyl)phenylamino-quinazoline] | 18 µM |
| N#CCc1ccc(Nc2ncnc3ccc(-c4cnc5ccccc5c4)cc23)cc1 [Compound 27, 6-(quinolin-3-yl)-4-(4-cyanomethyl)phenylamino-quinazoline] | 23 µM |

Tested on: HL-60 (leukemia) cells
Assay: MTT cytotoxicity assay, HL-60
Assay type: cell-based
Settings: Homo sapiens, 48 h treatment, read-out: Anticancer activity IC50 HL-60
Procedure: as §1

| SMILES | IC50 |
| --- | --- |
| N#CCc1ccc(Nc2ncnc3ccc(-c4cc5ccccc5o4)cc23)cc1 [Compound 22, 6-(benzofuran-2-yl)-4-(4-cyanomethyl)phenylamino-quinazoline] | 17 µM |
| N#CCc1ccc(Nc2ncnc3ccc(-c4cc5ccccc5s4)cc23)cc1 [Compound 23, 6-(benzo[b]thiophen-2-yl)-4-(4-cyanomethyl)phenylamino-quinazoline] | 14 µM |
| N#CCc1ccc(Nc2ncnc3ccc(-c4cccc5c4oc4ccccc45)cc23)cc1 [Compound 24, 6-(dibenzo(b,d)furan-4-yl)-4-(4-cyanomethyl)phenylamino-quinazoline] | 12 µM |
| N#CCc1ccc(Nc2ncnc3ccc(-c4cccc5c4sc4ccccc45)cc23)cc1 [Compound 25, 6-(dibenzo(b,d)thiophene-4-yl)-4-(4-cyanomethyl)phenylamino-quinazoline] | 31 µM |
| N#CCc1ccc(Nc2ncnc3ccc(-c4cnc5ccccc5c4)cc23)cc1 [Compound 27, 6-(quinolin-3-yl)-4-(4-cyanomethyl)phenylamino-quinazoline] | 44 µM |

Tested on: Panc-1 (pancreatic cancer) cells
Assay: MTT cytotoxicity assay, Panc-1
Assay type: cell-based
Settings: Homo sapiens, 48 h treatment, read-out: Anticancer activity IC50 Panc-1
Procedure: as §1

| SMILES | IC50 |
| --- | --- |
| N#CCc1ccc(Nc2ncnc3ccc(-c4cc5ccccc5o4)cc23)cc1 [Compound 22, 6-(benzofuran-2-yl)-4-(4-cyanomethyl)phenylamino-quinazoline] | 28 µM |
| N#CCc1ccc(Nc2ncnc3ccc(-c4cc5ccccc5s4)cc23)cc1 [Compound 23, 6-(benzo[b]thiophen-2-yl)-4-(4-cyanomethyl)phenylamino-quinazoline] | 24 µM |
| N#CCc1ccc(Nc2ncnc3ccc(-c4cccc5c4oc4ccccc45)cc23)cc1 [Compound 24, 6-(dibenzo(b,d)furan-4-yl)-4-(4-cyanomethyl)phenylamino-quinazoline] | 31 µM |
| N#CCc1ccc(Nc2ncnc3ccc(-c4cccc5c4sc4ccccc45)cc23)cc1 [Compound 25, 6-(dibenzo(b,d)thiophene-4-yl)-4-(4-cyanomethyl)phenylamino-quinazoline] | 33 µM |
| N#CCc1ccc(Nc2ncnc3ccc(-c4cnc5ccccc5c4)cc23)cc1 [Compound 27, 6-(quinolin-3-yl)-4-(4-cyanomethyl)phenylamino-quinazoline] | 90 µM |

Tested on: MCF-7 (breast cancer) cells
Assay: MTT cytotoxicity assay, MCF-7
Assay type: cell-based
Settings: Homo sapiens, MCF7, 48 h treatment, read-out: Anticancer activity IC50 MCF-7
Procedure: as §1

| SMILES | IC50 |
| --- | --- |
| N#CCc1ccc(Nc2ncnc3ccc(-c4cc5ccccc5o4)cc23)cc1 [Compound 22, 6-(benzofuran-2-yl)-4-(4-cyanomethyl)phenylamino-quinazoline] | 9 µM |
| N#CCc1ccc(Nc2ncnc3ccc(-c4cc5ccccc5s4)cc23)cc1 [Compound 23, 6-(benzo[b]thiophen-2-yl)-4-(4-cyanomethyl)phenylamino-quinazoline] | 8 µM |
| N#CCc1ccc(Nc2ncnc3ccc(-c4cccc5c4oc4ccccc45)cc23)cc1 [Compound 24, 6-(dibenzo(b,d)furan-4-yl)-4-(4-cyanomethyl)phenylamino-quinazoline] | 27 µM |
| N#CCc1ccc(Nc2ncnc3ccc(-c4cccc5c4sc4ccccc45)cc23)cc1 [Compound 25, 6-(dibenzo(b,d)thiophene-4-yl)-4-(4-cyanomethyl)phenylamino-quinazoline] | 34 µM |
| N#CCc1ccc(Nc2ncnc3ccc(-c4cnc5ccccc5c4)cc23)cc1 [Compound 27, 6-(quinolin-3-yl)-4-(4-cyanomethyl)phenylamino-quinazoline] | 32 µM |
